System: SREBP1
Assay: Immunofluorescence of SREBP1 nuclear accumulation
Type: cell-based, human
Settings: Huh7 cells, peptide 15 μM, IGF1 100 ng/mL 8 h
Experimental: Figure 1 The Insig1/2 loop 1 peptide binds to S90‐phosphorylated PCK1 and blocks PCK1‐mediated SREBP activation and tumor cell proliferation. Immunoblotting analyses were performed using the indicated antibodies; representative results from three independent experiments are shown (IP, immunoprecipitation; WB, western blot). a) Huh7 cells expressing various Insig1 (top) or Insig2 (bottom) truncation mutants were treated with or without IGF1 (100 ng mL^−1) for 1 h. b,c) Biolayer interferometry assays (Sartorius Octet) were employed to measure the binding affinity of Insig1/2 loop 1 peptide to GST‐PCK1 or GST‐PCK1 pS90 proteins. […] Statistical significance was determined by one‐way analysis of variance (ANOVA). g) Following pretreatment with Insig1/2 loop 1 peptide (15 µM) and IGF1 stimulation (100 ng mL^−1, 8 h), Huh7 cells were subjected to immunofluorescence analysis (scale bar: 10 µm). h) Quantitative PCR analysis of SREBP1 target gene GPAM in Huh7 cells pretreated with Insig1/2 loop 1 peptide (15 µM) and stimulated with IGF1 (100 ng mL^−1) for 10 h. […] Statistical significance was determined by one‐way analysis of variance (ANOVA). i) Quantitative PCR analysis of SREBP1 target gene FASN in Huh7 cells pretreated with Insig1/2 loop 1 peptide (15 µM) and stimulated with IGF1 (100 ng mL^−1) for 10 h. […]

RKKRRQRRRLYPCIDSHLGEPHKFKRE [Insig1/2 loop 1 peptide]
nuclear accumulation of SREBP1: markedly inhibited
